In patent US20250186416A1, “SMOKING CESSATION COMPOUNDS HAVING REDUCED NITROSAMINES AND ASSOCIATED METHODS” (Achieve Life Sciences, Inc., priority 2023, published 2025):
Like-named read-outs stand apart in the source and are kept apart here.

Tests used:
[1] = cited from earlier work

## O=C1O[C@H]([C@@H](O)CO)C(O)=C1O [ascorbic acid]
[1]; 5 mg/ml
  reported pH of ascorbic acid in water: 3
[1]; 50 mg/ml
  reported pH of ascorbic acid in water: 2

## O=c1cccc2n1C[C@@H]1CNC[C@H]2C1 [drug substance (API), cytisine]
Equivalent of 152 ppb in API
  NNC equivalent in the standard tablet formulation: approximately 0.46 ng/tablet
Storage about 10 months to about 8 years after manufacture
  highest level of NNC observed in representative batches of drug substance (API): 152 ppb
